Laboratory results from patent US7687517B2, “3,9-Diazabicyclo [3.3.1] nonane derivatives and their use as monoamine neurotransmitter re-uptake inhibitors” (Neurosearch A/S, priority 2006, dated 2010).
Structures can show the parent of a compound that is named as a salt. Where two headings read alike, the source gives them in different places.

Legend:
[1] = molecular target: T1, reuptake of dopamine (DA) in synaptosomes (Rattus norvegicus, UniProt P23977); experiment: Inhibition of dopamine reuptake in synaptosomes; format: biochemical; details: 3H-DA, read-out: DA-uptake IC50
T1 construct: in synaptosomes as described in WO 97/16451; from tissue
T1 sequence (P23977 whole entry): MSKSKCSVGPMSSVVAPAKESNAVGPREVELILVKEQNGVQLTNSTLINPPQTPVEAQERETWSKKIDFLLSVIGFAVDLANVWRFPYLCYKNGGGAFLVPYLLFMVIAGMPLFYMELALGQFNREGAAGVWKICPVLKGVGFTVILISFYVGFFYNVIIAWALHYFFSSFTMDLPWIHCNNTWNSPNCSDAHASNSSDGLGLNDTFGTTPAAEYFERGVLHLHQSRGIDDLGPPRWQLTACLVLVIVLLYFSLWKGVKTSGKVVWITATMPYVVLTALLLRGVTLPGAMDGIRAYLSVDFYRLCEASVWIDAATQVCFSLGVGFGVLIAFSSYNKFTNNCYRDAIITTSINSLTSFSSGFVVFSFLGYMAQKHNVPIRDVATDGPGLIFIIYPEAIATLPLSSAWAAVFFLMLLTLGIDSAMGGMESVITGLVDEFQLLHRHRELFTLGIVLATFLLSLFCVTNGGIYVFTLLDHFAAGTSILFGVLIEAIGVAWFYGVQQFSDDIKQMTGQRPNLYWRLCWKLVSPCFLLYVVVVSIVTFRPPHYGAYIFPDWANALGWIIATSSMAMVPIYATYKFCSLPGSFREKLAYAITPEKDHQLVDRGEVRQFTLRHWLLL

[2] = molecular target: T2, reuptake of serotonine (5-HT) in synaptosomes (Rattus norvegicus, UniProt P31652); experiment: Inhibition of serotonin reuptake in synaptosomes; format: biochemical
T2 construct: in synaptosomes as described in WO 97/16451; from tissue
T2 sequence (P31652 whole entry): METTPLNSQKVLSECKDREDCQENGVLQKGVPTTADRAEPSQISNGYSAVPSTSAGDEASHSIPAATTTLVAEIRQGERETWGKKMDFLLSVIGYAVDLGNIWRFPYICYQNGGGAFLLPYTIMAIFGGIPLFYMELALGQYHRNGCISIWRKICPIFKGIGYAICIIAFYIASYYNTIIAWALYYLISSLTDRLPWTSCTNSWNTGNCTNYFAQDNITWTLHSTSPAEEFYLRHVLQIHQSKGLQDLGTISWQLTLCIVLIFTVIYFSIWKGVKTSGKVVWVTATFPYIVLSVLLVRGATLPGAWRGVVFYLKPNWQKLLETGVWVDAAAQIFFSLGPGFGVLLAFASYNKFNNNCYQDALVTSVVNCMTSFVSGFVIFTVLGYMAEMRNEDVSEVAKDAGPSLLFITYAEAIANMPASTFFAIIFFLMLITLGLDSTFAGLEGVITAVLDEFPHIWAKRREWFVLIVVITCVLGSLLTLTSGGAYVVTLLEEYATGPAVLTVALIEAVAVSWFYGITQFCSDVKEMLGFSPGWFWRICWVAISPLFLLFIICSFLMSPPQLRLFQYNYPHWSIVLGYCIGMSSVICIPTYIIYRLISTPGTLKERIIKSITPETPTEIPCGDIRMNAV
Procedure: A number of compounds were tested for their ability to inhibit the reuptake of the monoamine neurotransmitters dopamine (DA) noradrenaline (NA) and serotonine (5-HT) in synaptosomes as described in WO 97/16451.
The test values are given as IC50 (the concentration (μM) of the test substance which inhibits the specific binding of ^3H-DA, ^3H-NA, or ^3H-5-HT by 50%).

[3] = molecular target: T3, reuptake of noradrenaline (NA) in synaptosomes (Rattus norvegicus, UniProt Q63380); experiment: Inhibition of noradrenaline reuptake in synaptosomes; format: biochemical
T3 construct: in synaptosomes as described in WO 97/16451; from tissue
T3 sequence (Q63380 1-617): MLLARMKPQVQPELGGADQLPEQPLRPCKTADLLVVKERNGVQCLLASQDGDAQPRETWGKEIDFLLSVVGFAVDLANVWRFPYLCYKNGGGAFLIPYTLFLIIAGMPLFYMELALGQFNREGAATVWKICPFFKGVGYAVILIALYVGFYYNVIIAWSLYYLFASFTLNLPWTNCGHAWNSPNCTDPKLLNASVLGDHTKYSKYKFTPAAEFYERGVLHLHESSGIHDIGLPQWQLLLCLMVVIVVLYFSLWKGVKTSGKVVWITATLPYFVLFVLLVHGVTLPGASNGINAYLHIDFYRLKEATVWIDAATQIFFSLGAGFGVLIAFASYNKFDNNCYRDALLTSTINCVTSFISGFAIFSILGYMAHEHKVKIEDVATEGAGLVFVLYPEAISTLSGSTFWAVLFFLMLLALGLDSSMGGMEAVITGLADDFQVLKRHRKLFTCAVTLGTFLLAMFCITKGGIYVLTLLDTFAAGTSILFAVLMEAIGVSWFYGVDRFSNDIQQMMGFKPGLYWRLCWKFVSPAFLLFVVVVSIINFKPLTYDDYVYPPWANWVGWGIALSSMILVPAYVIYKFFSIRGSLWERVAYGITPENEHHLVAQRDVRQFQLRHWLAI

[4] = synaptosomes, 3H-NA, read-out: NA-uptake IC50

`CN1C2CCCC1CN(c1ccc3ccccc3n1)C2` (as salt: fumaric acid salt) [2nd compound of Method A, 9-Methyl-3-quinolin-2-yl-3,9-diaza-bicyclo[3.3.1]nonane] showed a melting point of 170.2 to 176.9 °C.

With `O=[N+]([O-])c1ccc2nc(N3CC4CCCC(C3)N4)ccc2c1` [1st compound of Method B, 3-(6-Nitro-quinolin-2-yl)-3,9-diaza-bicyclo[3.3.1]nonane] the IC50 [1] was > 1000 nM, the IC50 [2] was 0.9 nM and the IC50 [3, 4] was 1200 nM.

For `CN1C2CCCC1CN(c1ccc3ccccc3n1)C2` [2nd compound of Method A, 9-Methyl-3-quinolin-2-yl-3,9-diaza-bicyclo[3.3.1]nonane], the IC50 [1] was > 1000 nM, the IC50 [2] was 7.7 nM and the IC50 [3, 4] was 140 nM.

In the case of `COc1ccc2nc(N3CC4CCCC(C3)N4C)ccc2c1` [5th compound of Method A, 3-(6-Methoxy-quinolin-2-yl)-9-methyl-3,9-diaza-bicyclo[3.3.1]nonane], the IC50 [1] is reported as 1800 nM, the IC50 [2] is reported as 26 nM and the IC50 [3] is reported as 100 nM.
